biological target: T1, human glucocorticoid receptor (Homo sapiens, UniProt P04150); test: Glucocorticoid Receptor Binding Assay (I), fluorescence polarization competitor kit; details: purified human recombinant full-length GR, Fluormone GS Red
T1 construct: purified human recombinant full-length glucocorticoid receptor (2 nM); purchased Invitrogen Part #2893
T1 sequence (P04150 1-777): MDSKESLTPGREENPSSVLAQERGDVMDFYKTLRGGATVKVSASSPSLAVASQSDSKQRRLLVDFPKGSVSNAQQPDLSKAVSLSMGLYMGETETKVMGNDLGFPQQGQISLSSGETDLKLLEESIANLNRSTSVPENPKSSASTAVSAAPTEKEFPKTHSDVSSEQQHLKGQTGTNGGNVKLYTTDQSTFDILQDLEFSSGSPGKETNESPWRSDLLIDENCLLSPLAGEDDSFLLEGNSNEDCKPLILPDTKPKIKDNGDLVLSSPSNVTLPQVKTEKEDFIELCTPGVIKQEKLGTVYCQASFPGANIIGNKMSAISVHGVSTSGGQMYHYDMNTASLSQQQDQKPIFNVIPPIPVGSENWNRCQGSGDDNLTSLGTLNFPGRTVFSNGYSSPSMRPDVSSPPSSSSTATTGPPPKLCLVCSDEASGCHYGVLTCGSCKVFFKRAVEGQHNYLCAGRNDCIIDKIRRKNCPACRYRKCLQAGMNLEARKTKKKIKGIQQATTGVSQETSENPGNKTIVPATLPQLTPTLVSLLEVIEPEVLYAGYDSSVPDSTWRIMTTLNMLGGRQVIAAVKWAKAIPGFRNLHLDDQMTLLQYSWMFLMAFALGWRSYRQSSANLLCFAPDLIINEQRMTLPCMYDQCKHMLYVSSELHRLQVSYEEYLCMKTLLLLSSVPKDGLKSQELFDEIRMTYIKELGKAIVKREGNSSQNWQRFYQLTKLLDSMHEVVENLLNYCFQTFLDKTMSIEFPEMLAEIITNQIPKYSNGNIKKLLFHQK
Experimental: Glucocorticoid Receptor Binding Assay (I)^a
In order to assess the affinity of test compounds for the human glucocorticoid receptor, a commercially available kit was used (Glucocorticoid Receptor Competitor Assay Kit, Invitrogen Part #2893). Briefly, purified human recombinant full-length glucocorticoid receptor (2 nM) was mixed with fluorescently labeled glucocorticoid (1 nM Fluormone GS Red) in the presence or absence of test compound. After two hour incubation at room temperature in the dark, the fluorescence polarization (FP) of the samples was measured. The FP of a mixture of receptor, fluorescent probe (i.e. Fluormone GS Red) and 5 μM dexamethasone represented background fluorescence or 100% inhibition, whereas, the FP of the mixture without dexamethasone (but in the presence of vehicle) was taken to be 100% binding. The percentage inhibition of test compounds were then compared to the sample with 5 μM dexamethasone and expressed as % relative binding activity with dexamethasone being 100% and no inhibition is 0%. Test compounds were analyzed in the concentration range from 8.5E-05 μM to 5 μM.

**Q.** Which Ki does the source give for `C[C@H](C(=O)Nc1nncs1)[C@@H](c1cccc(F)c1)c1ccc(-c2ccc(C(=O)N3CCOCC3)cc2)s1` [Example 108, (2S,3S)-3-(3-fluorophenyl)-2-methyl-3-(5-(4-(4-morpholinylcarbonyl)phenyl)-2-thienyl)-N-1,3,4-thiadiazol-2-ylpropanamide] here?
**A.** Its Ki is 5.39 nM.

**Q.** With `CC(C)Oc1ccc(-c2ccc(C(c3ccccc3)C(C)(C)C(=O)Nc3nncs3)cn2)cc1F` (centres unmarked) [Example 29, 3-(6-(3-fluoro-4-isopropoxyphenyl)-3-pyridinyl)-2,2-dimethyl-3-phenyl-N-1,3,4-thiadiazol-2-ylpropanamide] as the molecule, how does the Ki read?
**A.** Its Ki is 7.69 nM.

**Q.** Which Ki does the source give for `CC(C(=O)Nc1nncs1)C(c1cccc(F)c1)c1ccc(Br)s1` (mixture of isomers) [Example 93, 3-(5-bromo-2-thienyl)-3-(3-fluorophenyl)-2-methyl-N-1,3,4-thiadiazol-2-ylpropanamide] here?
**A.** Its Ki is 2.79 nM.

**Q.** How did the Ki turn out when `CN(C)C(=O)c1ccc(-c2ccc(C(c3cc(F)cc(F)c3)C(C)(C)C(=O)Nc3nncs3)s2)cc1Cl` (centres unmarked) [Example 91, 2-chloro-4-(5-(1-(3,5-difluorophenyl)-2,2-dimethyl-3-oxo-3-(1,3,4-thiadiazol-2-ylamino)propyl)-2-thienyl)-N,N-dimethylbenzamide] was run?
**A.** The Ki was 4.59 nM.

**Q.** Which Ki does the source give for `CC(C(=O)Nc1nncs1)C(c1ccccc1)c1ccc(Br)s1` (single isomer, unassigned) [Example 135, 3-(5-bromo-2-thienyl)-2-methyl-3-phenyl-N-1,3,4-thiadiazol-2-ylpropanamide] here?
**A.** Its Ki is 1.25 nM.

**Q.** `C[C@@H](C(=O)Nc1nncs1)[C@H](c1cccc(F)c1)c1ccc(Br)s1` [Example 97, (2R,3R)-3-(5-bromo-2-thienyl)-3-(3-fluorophenyl)-2-methyl-N-1,3,4-thiadiazol-2-ylpropanamide] was tested. Which Ki did it give?
**A.** The Ki was 1.96 nM.

**Q.** Which Ki does the source give for `CC(C)(C(=O)Nc1nncs1)[C@H](c1cccc(F)c1)c1ccc(-c2ccc(C(=O)O)c(F)c2)s1` [Example 63, 2-fluoro-4-(5-((1S)-1-(3-fluorophenyl)-2,2-dimethyl-3-oxo-3-(1,3,4-thiadiazol-2-ylamino)propyl)-2-thienyl)benzoic acid] here?
**A.** Its Ki is 565 nM.

**Q.** Which Ki does the source give for `CC(C)(C(=O)Nc1nncs1)[C@H](c1cccc(F)c1)c1ccc(-c2ccc(C(=O)N3CCOCC3)cc2)s1` [Example 59, (3S)-3-(3-fluorophenyl)-2,2-dimethyl-3-(5-(4-(4-morpholinylcarbonyl)phenyl)-2-thienyl)-N-1,3,4-thiadiazol-2-ylpropanamide] here?
**A.** The Ki was 66.9 nM.

**Q.** For `CC(C)(C(=O)Nc1nncs1)C(c1ccccc1)c1ccc(-c2ccc(C(=O)N3CCCCC3)cc2)s1` (centres unmarked) [Example 46, 2,2-dimethyl-3-phenyl-3-(5-(4-(1-piperidinylcarbonyl)phenyl)-2-thienyl)-N-1,3,4-thiadiazol-2-ylpropanamide], which Ki is on record?
**A.** Its Ki is 11.7 nM.

**Q.** How did the Ki turn out when `CN(C)C(=O)c1ccc(-c2ccc(C(c3ccccc3)C(C)(C)C(=O)Nc3nncs3)s2)cc1` (centres unmarked) [Example 44, 4-(5-(2,2-dimethyl-3-oxo-1-phenyl-3-(1,3,4-thiadiazol-2-ylamino)propyl)-2-thienyl)-N,N-dimethylbenzamide] was run?
**A.** The Ki was 0.89 nM.

**Q.** For `CC(C)(C(=O)Nc1nncs1)[C@@H](c1cccc(F)c1)c1ccc(-c2ccc(C(=O)NC3CC3)cc2)s1` [Example 77, N-cyclopropyl-4-(5-((1R)-1-(3-fluorophenyl)-2,2-dimethyl-3-oxo-3-(1,3,4-thiadiazol-2-ylamino)propyl)-2-thienyl)benzamide], which Ki is on record?
**A.** Its Ki is 4.19 nM.

**Q.** Which Ki does the source give for `CC(C)(C(=O)Nc1nncs1)C(c1cc(F)cc(F)c1)c1ccc(Br)s1` (centres unmarked) [Example 19, 3-(5-bromo-2-thienyl)-3-(3,5-difluorophenyl)-2,2-dimethyl-N-1,3,4-thiadiazol-2-ylpropanamide] here?
**A.** Its Ki is 2.93 nM.

**Q.** How did the Ki turn out when `CCN(C)C(=O)c1ccc(-c2ccc([C@@H](c3ccccc3)[C@@H](C)C(=O)Nc3nncs3)s2)cc1` (stereo in doubt) [Example 154, N-ethyl-N-methyl-4-(5-((1R,2R)-2-methyl-3-oxo-1-phenyl-3-(1,3,4-thiadiazol-2-ylamino)propyl)-2-thienyl)benzamide] was run?
**A.** The Ki was 2.15 nM.

**Q.** Which Ki does the source give for `COc1ccc(-c2ccc(C(c3cccc(F)c3)C(C)(C)C(=O)Nc3nncs3)s2)cc1` (centres unmarked) [Example 35, 3-(3-fluorophenyl)-3-(5-(4-methoxyphenyl)-2-thienyl)-2,2-dimethyl-N-1,3,4-thiadiazol-2-ylpropanamide] here?
**A.** The Ki was 5.75 nM.

**Q.** `C[C@@H](C(=O)Nc1nncs1)[C@@H](c1cccc(F)c1)c1ccc(-c2ccc(C(=O)N(C)C)c(Cl)c2)s1` [Example 129, 2-chloro-4-(5-((1S,2R)-1-(3-fluorophenyl)-2-methyl-3-oxo-3-(1,3,4-thiadiazol-2-ylamino)propyl)-2-thienyl)-N,N-dimethylbenzamide] was tested. Which Ki did it give?
**A.** Its Ki is 158 nM.

**Q.** How did the Ki turn out when `CC(C)(C(=O)Nc1nncs1)[C@@H](c1cccc(F)c1)c1ccc(Br)s1` [Example 57, (3R)-3-(5-bromo-2-thienyl)-3-(3-fluorophenyl)-2,2-dimethyl-N-1,3,4-thiadiazol-2-ylpropanamide] was run?
**A.** The Ki was 2.39 nM.

**Q.** Which Ki does the source give for `C[C@H](C(=O)Nc1nncs1)[C@H](c1cccc(F)c1)c1ccc(-c2ccc(C(=O)N(C)C)c(Cl)c2)s1` [Example 126, 2-chloro-4-(5-((1R,2S)-1-(3-fluorophenyl)-2-methyl-3-oxo-3-(1,3,4-thiadiazol-2-ylamino)propyl)-2-thienyl)-N,N-dimethylbenzamide] here?
**A.** The Ki was 220 nM.

**Q.** Which Ki does the source give for `CC(C)(C(=O)Nc1nncs1)[C@H](c1cccc(F)c1)c1ccc(-c2ccc(C(=O)N3CCOCC3)c(Cl)c2)s1` [Example 61, (3S)-3-(5-(3-chloro-4-(4-morpholinylcarbonyl)phenyl)-2-thienyl)-3-(3-fluorophenyl)-2,2-dimethyl-N-1,3,4-thiadiazol-2-ylpropanamide] here?
**A.** Its Ki is 101 nM.

**Q.** How did the Ki turn out when `CCN(C)C(=O)c1ccc(-c2ccc([C@@H](c3cccc(F)c3)C(C)(C)C(=O)Nc3nncs3)s2)cc1` [Example 62, N-ethyl-4-(5-((1S)-1-(3-fluorophenyl)-2,2-dimethyl-3-oxo-3-(1,3,4-thiadiazol-2-ylamino)propyl)-2-thienyl)-N-methylbenzamide] was run?
**A.** The Ki was 87.6 nM.

**Q.** For `CCN(CC)C(=O)c1ccc(-c2ccc(C(c3ccccc3)C(C)(C)C(=O)Nc3nncs3)s2)cc1` (centres unmarked) [Example 49, 4-(5-(2,2-dimethyl-3-oxo-1-phenyl-3-(1,3,4-thiadiazol-2-ylamino)propyl)-2-thienyl)-N,N-diethylbenzamide], which Ki is on record?
**A.** Its Ki is 3.58 nM.

**Q.** `C[C@H](C(=O)Nc1nncs1)[C@@H](c1ccccc1)c1ccc(-c2ccc(C(=O)N(C)C)cc2)s1` [Example 137, N,N-dimethyl-4-(5-((1S,2S)-2-methyl-3-oxo-1-phenyl-3-(1,3,4-thiadiazol-2-ylamino)propyl)-2-thienyl)benzamide] was tested. Which Ki did it give?
**A.** The Ki was 4.73 nM.

**Q.** How did the Ki turn out when `CC(C)Oc1ccc(-c2ccc(C(c3cccc(F)c3)C(C)(C)C(=O)Nc3nncs3)s2)cc1F` (centres unmarked) [Example 37, 3-(5-(3-fluoro-4-isopropoxyphenyl)-2-thienyl)-3-(3-fluorophenyl)-2,2-dimethyl-N-1,3,4-thiadiazol-2-ylpropanamide] was run?
**A.** The Ki was 53.5 nM.

**Q.** With `CCN(C)C(=O)c1ccc(-c2ccc(C(c3cc(F)cc(F)c3)C(C)(C)C(=O)Nc3nncs3)s2)cc1` (centres unmarked) [Example 92, 4-(5-(1-(3,5-difluorophenyl)-2,2-dimethyl-3-oxo-3-(1,3,4-thiadiazol-2-ylamino)propyl)-2-thienyl)-N-ethyl-N-methylbenzamide] as the molecule, how does the Ki read?
**A.** The Ki was 1.14 nM.

**Q.** How did the Ki turn out when `CC(C)(C(=O)Nc1nncs1)[C@@H](c1cccc(F)c1)c1ccc(-c2ccc(C(=O)N3CCCCC3)cc2)s1` [Example 71, (3R)-3-(3-fluorophenyl)-2,2-dimethyl-3-(5-(4-(1-piperidinylcarbonyl)phenyl)-2-thienyl)-N-1,3,4-thiadiazol-2-ylpropanamide] was run?
**A.** The Ki was 1.51 nM.

**Q.** Which Ki does the source give for `CC(C(=O)Nc1nncs1)C(c1ccccc1)c1ccc(Br)s1` (single isomer, unassigned) [Example 134, 3-(5-bromo-2-thienyl)-2-methyl-3-phenyl-N-1,3,4-thiadiazol-2-ylpropanamide] here?
**A.** Its Ki is 1.06 nM.

**Q.** For `CC(C)(C(=O)Nc1nncs1)[C@@H](c1cccc(F)c1)c1ccc(-c2ccc(C(=O)N3CCC3)cc2)s1` [Example 81, (3R)-3-(5-(4-(1-azetidinylcarbonyl)phenyl)-2-thienyl)-3-(3-fluorophenyl)-2,2-dimethyl-N-1,3,4-thiadiazol-2-ylpropanamide], which Ki is on record?
**A.** Its Ki is 4.32 nM.

Reference: patent publication US8222247B2, “Modulators of glucocorticoid receptor, AP-1, and/or NF-kappabeta activity and use thereof” (Bristol-Myers Squibb Company, priority 2006, dated 2012)
